Source: patent publication US10245261B2, “Substituted indol-5-ol derivatives and their therapeutic applications” (NantBioScience, Inc., priority 2013, dated 2019)
Like-named read-outs stand apart in the source and are kept apart here.

Legend:
K562 = assay: CellTiterBlue cell growth inhibition; assay type: cell-based; details: Homo sapiens; K562, 72 hours
Protocol: (§1) This example illustrated the proliferating cell growth inhibition of selected compounds from this invention. To do this, the cells were seeded into fresh Iscove's growth medium at a density of 0.4e6 cells/ml and grown in log phase for 24 hr. Cells were then resuspended in their fresh respective growth media at 0.1e^6 cells/ml and plated into 384 well black, clear-bottom microplates at 36 ul/well. Test compounds and controls were initially dissolved in DMSO at the desired concentration, then serially diluted to the assay buffer. These solutions were added and cells were incubated for 72 hours at 37° C. CellTiterBlue (Promega cat# G7572) was added on the Beckman FX. Plates were returned to the 37° C. CO2 incubator for 4 hr and then fluorescence was determined on the Victor plate reader. Data were processed using Microsoft Excel, and GI50 values were generated using Prism (GraphPad Software, San Diego, Calif.).

MV4.11 = assay: CellTiterBlue cell growth inhibition; assay type: cell-based; details: Homo sapiens; MV4.11, 72 hours
Protocol: as §1

KDR(h) = KDR(h) (Homo sapiens, UniProt P35968); assay: KinaseProfiler kinase assay; assay type: biochemical
cSRC(h) = cSRC(h) (Homo sapiens, UniProt P12931); assay: KinaseProfiler kinase assay; assay type: biochemical
Procedure, shortened: (§2)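 Steps: compound diluted from DMSO into MOPS/BSA assay buffer; MgATP mix with [γ-33P]ATP added to start; 40 min incubation at room temperature; phosphoric acid stop; filtermat spotting, washing in 50 mM phosphoric acid and methanol; scintillation counting.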

Flt3(h) = molecular target: T1, Flt3(h) (Homo sapiens, UniProt P36888); assay: KinaseProfiler kinase assay; assay type: biochemical
T1 sequence (P36888 27-993): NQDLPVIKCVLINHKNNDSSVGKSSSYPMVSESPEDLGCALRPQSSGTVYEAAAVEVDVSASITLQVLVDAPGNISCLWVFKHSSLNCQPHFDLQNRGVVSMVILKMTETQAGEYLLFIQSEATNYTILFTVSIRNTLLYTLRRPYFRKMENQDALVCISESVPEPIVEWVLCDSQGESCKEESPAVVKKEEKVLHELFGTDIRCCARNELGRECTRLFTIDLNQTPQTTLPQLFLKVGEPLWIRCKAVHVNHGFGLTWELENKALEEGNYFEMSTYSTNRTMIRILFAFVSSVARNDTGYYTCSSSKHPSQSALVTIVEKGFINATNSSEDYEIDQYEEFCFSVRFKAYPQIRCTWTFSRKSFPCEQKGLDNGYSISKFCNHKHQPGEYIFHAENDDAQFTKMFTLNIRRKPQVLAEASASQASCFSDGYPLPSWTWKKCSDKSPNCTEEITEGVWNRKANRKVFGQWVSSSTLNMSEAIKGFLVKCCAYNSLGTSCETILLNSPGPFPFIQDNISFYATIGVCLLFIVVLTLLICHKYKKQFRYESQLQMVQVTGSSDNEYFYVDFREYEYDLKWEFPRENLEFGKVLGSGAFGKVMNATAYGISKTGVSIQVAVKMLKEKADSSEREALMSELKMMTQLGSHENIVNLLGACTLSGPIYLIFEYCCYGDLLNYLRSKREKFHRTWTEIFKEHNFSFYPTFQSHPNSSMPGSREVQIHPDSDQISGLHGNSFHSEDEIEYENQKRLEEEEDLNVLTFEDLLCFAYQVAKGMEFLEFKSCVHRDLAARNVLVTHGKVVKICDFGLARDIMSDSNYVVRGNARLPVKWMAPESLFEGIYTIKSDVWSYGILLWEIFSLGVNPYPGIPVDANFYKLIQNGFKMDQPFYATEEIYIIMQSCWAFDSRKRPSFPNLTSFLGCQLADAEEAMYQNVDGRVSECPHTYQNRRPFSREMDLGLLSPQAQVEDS
Procedure, shortened: as §2

FGFR1(h) = FGFR1(h) (Homo sapiens, UniProt P11362); assay: KinaseProfiler kinase assay; assay type: biochemical
Procedure, shortened: as §2

[1] = test system: human MIAPaCa-2 pancreatic carcinoma xenograft; assay: Pancreatic carcinoma xenograft in athymic nude mice; assay type: in vivo, mouse; details: MIAPaCa-2 xenograft; for anti-tumor effect: nude mice, single agent
Procedure, shortened: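 Athymic nude mice were implanted s.c. in both flanks with 0.1 ml of 5.0×10^7 MIAPaCa-2 cells/mL. Dosing ran 5 days on/2 off: two cycles for NTW-3475 (25, 50 mg/kg) and Abraxane (20 mg/kg), three cycles for the other compounds (40 mg/kg), each alongside vehicle. Tumours were caliper-measured two to three times weekly.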

Abl(h) = Abl(h) (Homo sapiens, UniProt P00519); assay: KinaseProfiler kinase assay; assay type: biochemical
Abl(h), sequence (P00519 whole entry): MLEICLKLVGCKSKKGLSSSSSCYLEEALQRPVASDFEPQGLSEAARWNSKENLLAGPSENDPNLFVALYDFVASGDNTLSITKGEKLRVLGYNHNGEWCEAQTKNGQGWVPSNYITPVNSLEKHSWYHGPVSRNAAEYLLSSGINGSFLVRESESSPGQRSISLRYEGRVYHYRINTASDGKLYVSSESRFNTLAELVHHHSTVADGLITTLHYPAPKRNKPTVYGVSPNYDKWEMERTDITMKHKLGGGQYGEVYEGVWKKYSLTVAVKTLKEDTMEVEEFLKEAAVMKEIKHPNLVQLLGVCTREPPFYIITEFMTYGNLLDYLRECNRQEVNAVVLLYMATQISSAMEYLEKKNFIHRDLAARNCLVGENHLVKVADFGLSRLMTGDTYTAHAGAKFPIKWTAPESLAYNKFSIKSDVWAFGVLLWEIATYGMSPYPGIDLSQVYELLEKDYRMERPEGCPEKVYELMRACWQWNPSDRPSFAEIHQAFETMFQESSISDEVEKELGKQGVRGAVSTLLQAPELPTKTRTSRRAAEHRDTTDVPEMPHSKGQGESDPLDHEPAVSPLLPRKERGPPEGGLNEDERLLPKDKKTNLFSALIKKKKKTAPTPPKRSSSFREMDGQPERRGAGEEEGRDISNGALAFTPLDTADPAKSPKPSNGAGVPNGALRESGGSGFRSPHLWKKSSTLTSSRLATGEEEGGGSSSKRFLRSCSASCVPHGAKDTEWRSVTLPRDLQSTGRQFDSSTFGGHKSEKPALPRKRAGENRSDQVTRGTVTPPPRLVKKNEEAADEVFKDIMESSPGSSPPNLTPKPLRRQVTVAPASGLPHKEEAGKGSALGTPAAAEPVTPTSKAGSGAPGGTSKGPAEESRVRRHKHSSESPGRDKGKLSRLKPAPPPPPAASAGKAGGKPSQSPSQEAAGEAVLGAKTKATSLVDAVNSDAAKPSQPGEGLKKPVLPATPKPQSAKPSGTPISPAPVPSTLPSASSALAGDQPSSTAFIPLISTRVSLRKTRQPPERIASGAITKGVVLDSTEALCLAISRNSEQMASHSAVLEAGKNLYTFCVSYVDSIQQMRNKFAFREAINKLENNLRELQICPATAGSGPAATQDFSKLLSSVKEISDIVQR

KDR(h), sequence (P35968 20-1356): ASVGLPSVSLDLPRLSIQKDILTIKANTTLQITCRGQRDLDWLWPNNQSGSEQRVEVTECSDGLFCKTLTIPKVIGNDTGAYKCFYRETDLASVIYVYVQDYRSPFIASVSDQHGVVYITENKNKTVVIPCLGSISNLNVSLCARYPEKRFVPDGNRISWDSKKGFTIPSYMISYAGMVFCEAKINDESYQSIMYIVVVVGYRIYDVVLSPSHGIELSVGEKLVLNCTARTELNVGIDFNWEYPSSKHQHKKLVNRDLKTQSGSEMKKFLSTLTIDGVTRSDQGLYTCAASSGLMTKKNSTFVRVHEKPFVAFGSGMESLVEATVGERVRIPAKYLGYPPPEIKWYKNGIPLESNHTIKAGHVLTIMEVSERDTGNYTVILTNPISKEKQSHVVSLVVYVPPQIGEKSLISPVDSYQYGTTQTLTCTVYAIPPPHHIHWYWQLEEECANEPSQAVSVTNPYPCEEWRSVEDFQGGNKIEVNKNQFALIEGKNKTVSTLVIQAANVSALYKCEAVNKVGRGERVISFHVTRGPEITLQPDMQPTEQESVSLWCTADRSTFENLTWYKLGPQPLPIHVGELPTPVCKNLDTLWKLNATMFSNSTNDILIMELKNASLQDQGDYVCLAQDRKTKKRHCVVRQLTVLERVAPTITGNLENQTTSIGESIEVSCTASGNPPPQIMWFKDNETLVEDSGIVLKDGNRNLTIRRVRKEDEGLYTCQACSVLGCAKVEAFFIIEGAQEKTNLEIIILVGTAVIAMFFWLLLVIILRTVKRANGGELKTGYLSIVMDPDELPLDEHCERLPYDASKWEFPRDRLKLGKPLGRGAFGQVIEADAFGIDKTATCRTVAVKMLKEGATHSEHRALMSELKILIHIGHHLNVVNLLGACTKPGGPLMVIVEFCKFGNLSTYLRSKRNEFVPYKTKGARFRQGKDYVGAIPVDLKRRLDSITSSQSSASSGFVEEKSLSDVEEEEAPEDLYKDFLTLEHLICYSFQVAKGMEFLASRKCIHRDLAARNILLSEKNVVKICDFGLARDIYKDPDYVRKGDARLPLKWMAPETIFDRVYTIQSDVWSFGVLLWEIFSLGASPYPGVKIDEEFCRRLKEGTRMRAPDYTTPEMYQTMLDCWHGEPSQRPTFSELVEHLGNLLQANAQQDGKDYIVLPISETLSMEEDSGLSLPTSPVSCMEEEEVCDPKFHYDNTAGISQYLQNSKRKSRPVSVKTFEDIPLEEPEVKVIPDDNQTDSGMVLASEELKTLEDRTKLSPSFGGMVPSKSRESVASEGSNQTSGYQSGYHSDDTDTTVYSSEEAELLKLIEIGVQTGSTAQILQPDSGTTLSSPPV
FGFR1(h), sequence (P11362 22-822): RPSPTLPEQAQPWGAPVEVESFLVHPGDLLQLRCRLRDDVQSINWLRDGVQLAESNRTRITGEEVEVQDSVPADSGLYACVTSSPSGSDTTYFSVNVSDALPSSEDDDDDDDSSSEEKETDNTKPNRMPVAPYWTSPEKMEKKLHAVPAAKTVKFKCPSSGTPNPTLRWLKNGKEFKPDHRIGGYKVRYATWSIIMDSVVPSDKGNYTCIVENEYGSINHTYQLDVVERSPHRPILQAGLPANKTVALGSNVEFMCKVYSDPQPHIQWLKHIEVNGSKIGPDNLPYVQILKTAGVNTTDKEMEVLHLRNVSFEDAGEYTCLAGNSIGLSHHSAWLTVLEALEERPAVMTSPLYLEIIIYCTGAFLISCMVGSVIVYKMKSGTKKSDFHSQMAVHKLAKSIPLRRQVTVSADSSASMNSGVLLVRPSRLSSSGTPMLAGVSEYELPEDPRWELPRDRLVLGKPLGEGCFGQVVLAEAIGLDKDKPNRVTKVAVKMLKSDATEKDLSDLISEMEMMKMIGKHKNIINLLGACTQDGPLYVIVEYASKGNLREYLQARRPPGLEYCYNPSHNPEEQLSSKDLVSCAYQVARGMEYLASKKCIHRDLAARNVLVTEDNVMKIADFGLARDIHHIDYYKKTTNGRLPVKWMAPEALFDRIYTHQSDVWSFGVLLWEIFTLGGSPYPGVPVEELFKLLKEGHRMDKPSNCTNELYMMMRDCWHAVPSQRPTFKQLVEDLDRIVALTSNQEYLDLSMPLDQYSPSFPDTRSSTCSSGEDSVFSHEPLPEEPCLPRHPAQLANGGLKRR
cSRC(h), sequence (P12931 whole entry): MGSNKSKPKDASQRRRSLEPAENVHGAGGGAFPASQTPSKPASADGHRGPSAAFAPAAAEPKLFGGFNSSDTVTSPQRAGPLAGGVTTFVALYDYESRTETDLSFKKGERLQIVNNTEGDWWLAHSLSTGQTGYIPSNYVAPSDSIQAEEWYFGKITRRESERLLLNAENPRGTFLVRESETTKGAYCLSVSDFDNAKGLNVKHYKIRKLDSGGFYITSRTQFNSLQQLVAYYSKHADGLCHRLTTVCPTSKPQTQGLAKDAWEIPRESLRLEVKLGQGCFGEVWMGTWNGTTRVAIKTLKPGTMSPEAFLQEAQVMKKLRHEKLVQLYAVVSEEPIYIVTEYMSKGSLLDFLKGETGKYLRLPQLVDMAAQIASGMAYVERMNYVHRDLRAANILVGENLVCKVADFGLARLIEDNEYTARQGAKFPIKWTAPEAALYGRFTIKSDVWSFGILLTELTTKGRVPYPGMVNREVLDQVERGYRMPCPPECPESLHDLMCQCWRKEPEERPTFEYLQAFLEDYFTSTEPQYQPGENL

| SMILES | GI50 (K562) | GI50 (MV4.11) | inhibition at 1 µM (KDR(h)) | inhibition at 1 µM (cSRC(h)) | IC50 (cSRC(h); read-out: IC50 (nM) cSrc (h)) | inhibition at 1 µM (Flt3(h)) | IC50 (Flt3(h); read-out: IC50 (nM) Flt3 (h)) | IC50 (FGFR1(h); read-out: IC50 (nM) FGFR1 (h)) | anti-tumor effect [1] | inhibition at 1 µM (Abl(h)) | IC50 (Abl(h); read-out: IC50 (nM) Abl (h)) | IC50 (KDR(h); read-out: IC50 (nM) KDR (h)) | anti-tumor effect in combination with Abraxane [1] | further results |
| --- | --- | --- | --- | --- | --- | --- | --- | --- | --- | --- | --- | --- | --- | --- |
| Cc1cc2c(F)c(Oc3nc(Nc4cc(C5CC5)[nH]n4)cc(N4CCN(C)CC4)n3)ccc2[nH]1 [Compound 10] | 0.19 nM | 0.19 nM | 95% | 100% | 3 nM | 100% | 11 nM | 1 nM | strong anti-tumor effect | 112% | 0.5 nM |  |  | inhibition at 0.1 µM (KDR(h)): 93%; inhibition at 0.1 µM (cSRC(h)): 103%; inhibition at 0.1 µM (Flt3(h)): 101%; inhibition at 0.1 µM (FGFR1(h)): 100%; inhibition at 0.1 µM (Abl(h)): 110% |
| Cc1cc2c(F)c(Oc3nc(Nc4cc(C5CC5)[nH]n4)cc(N4CCNCC4)n3)ccc2[nH]1 [Compound 11, N-(5-cyclopropyl-1H-pyrazol-3-yl)-2-((4-fluoro-2-methyl-1H-indol-5-yl)oxy)-6-(piperazin-1-yl)pyrimidin-4-amine] | 0.41 nM | 0.29 nM | 96% | 101% | 3 nM | 100% | 12 nM | 0.5 nM | strong anti-tumor effect | 111% | 0.5 nM | 12 nM |  | inhibition at 0.1 µM (KDR(h)): 92%; inhibition at 0.1 µM (cSRC(h)): 98%; inhibition at 0.1 µM (Flt3(h)): 98%; inhibition at 0.1 µM (FGFR1(h)): 100%; inhibition at 0.1 µM (Abl(h)): 108% |
| C/C=C/c1cc(Nc2cc(N3CCN(C)CC3)nc(Oc3ccc4[nH]c(C)cc4c3F)n2)n[nH]1 [Compound 53] | 0.69 nM | 0.15 nM | 95% | 98% |  | 99% |  |  |  | 109% |  |  |  | IC50 (KDR(h); VEGFR2, read-out: IC50): 16 nM; IC50 (cSRC(h); cSrc, read-out: IC50): 2 nM; IC50 (Flt3(h); Flt3, read-out: IC50): 13 nM; IC50 (FGFR1(h); FGFR1, read-out: IC50): 0.5 nM; IC50 (Abl(h); Abl, read-out: IC50): 0.6 nM |
| C/C=C/c1cc(Nc2cc(N3CCNCC3)nc(Oc3ccc4[nH]c(C)cc4c3F)n2)n[nH]1 [Compound 68] | 0.26 nM | 0.16 nM | 92% | 96% | 2 nM | 100% | 4 nM | 0.6 nM | strong anti-tumor effect | 107% | 0.3 nM | 12 nM | significant antitumor efficacy |  |
| Cc1cc2c(F)c(Oc3nc(Nc4cc(C5CC5)[nH]n4)cc(N4CCNCC4)n3)cc(F)c2[nH]1 [Compound 82] | 0.31 nM | 0.28 nM | 95% | 100% | 2 nM | 100% | 6 nM | 0.6 nM | strong anti-tumor effect | 106% | 0.2 nM | 11 nM | significant antitumor efficacy |  |
| C/C=C/c1cc(Nc2cc(N3CCN(CCO)CC3)nc(Oc3cc(F)c4[nH]c(C)cc4c3F)n2)n[nH]1 [Compound 88] | 0.6 nM | 0.16 nM | 96% | 100% | 4 nM | 100% | 8 nM | 0.2 nM | strong anti-tumor effect | 113% | 1 nM | 44 nM |  |  |
| C/C=C/c1cc(Nc2cc(N3CCN(C)CC3)nc(Oc3cc(F)c4[nH]c(C)cc4c3F)n2)n[nH]1 [NTW-3456] |  |  |  |  |  |  |  |  | some anti-tumor activity |  |  |  | significant anti-tumor activity |  |
